From patent US10849988B2, “Hydrogel for engineered immune response to D-chirality peptides” (THE REGENTS OF THE UNIVERSITY OF CALIFORNIA, priority 2016, dated 2020)
Where no end group is shown, it is not given here. [ ]: non-standard residue; d: D form.

Test system: macrophages
Test: In vitro macrophage assay, mRNA production of key markers of inflammation
Type: cell-based
From the text: FIGS. 6A-6I show data from comparative studies on D and L peptides. […] Note: in 1:1 L/D samples the L gels are unlabeled. FIG. 6B) Quantification of CD11b positive cells (immune cells) within and around gel within a healed dermal wound bed at Day 21 (ex. FIG. 6A). FIG. 6C) Comparing cell recruitment into subcutaneously-injected gels as a function of adaptive immune competence (Balb/c) versus adaptive immune incompetence (Rag2gc−/−). FIG. 6D) Fraction of immune cell to total cell recruitment within a subcutaneously injected gels as a function of adaptive immune competence (Balb/c) versus adaptive immune incompetence (Rag2gc−/−). FIGS. 6E-I) mRNA production of key markers of inflammation within an in vitro macrophage assay upon exposure to DI water, Lipid Polysaccharide (LPS) 500 ug/mL, D-MMP crosslinker 500 ug/mL, and LPS+D-MMP.

## Gly Cys Arg Asp Gly Pro d-Gln Gly d-Ile d-Trp Gly Gln Asp Arg Cys Gly (GCRDGP[dQ]G[dI][dW]GQDRCG; cysteine pairing not given here) [D-MMP]
D-MMP crosslinker 500 ug/mL alone
  effect on macrophages (mRNA of key markers of inflammation) relative to the positive control (LPS): no direct effect
LPS+D-MMP, each 500 ug/mL
  effect on macrophages (mRNA of key markers of inflammation) when combined with the positive control (LPS): some additive affects
